Data: PubChem BioAssay (NCI)
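How tested: cells in 96-well plates exposed to compound for 48 hours at five concentrations. Here, GI50 denotes the concentration required for 50% inhibition of growth. At the TGI there is no net growth.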

What was measured:
Test in all cases: NCI tumour cell line growth inhibition, 48 h
M14 melanoma = test system: M14 melanoma
SK-OV-3 ovarian = test system: SK-OV-3 ovarian
RXF 393 renal = test system: RXF 393 renal
SW-620 colon = test system: SW-620 colon
RPMI-8226 leukemia = test system: RPMI-8226 leukemia
HS 578T breast = test system: HS 578T breast
SN12C renal = test system: SN12C renal
NCI-H522 lung = test system: NCI-H522 lung
NCI-H23 lung = test system: NCI-H23 lung
SF-268 CNS = test system: SF-268 CNS
SK-MEL-5 melanoma = test system: SK-MEL-5 melanoma
SNB-75 CNS = test system: SNB-75 CNS
T-47D breast = test system: T-47D breast
K-562 leukemia = test system: K-562 leukemia
NCI-H460 lung = test system: NCI-H460 lung
EKVX NSCLC = test system: EKVX NSCLC
SK-MEL-2 melanoma = test system: SK-MEL-2 melanoma
HCC-2998 colon = test system: HCC-2998 colon
MCF7 breast = test system: MCF7 breast
HCT-116 colon = test system: HCT-116 colon
HL-60(TB) leukemia = test system: HL-60(TB) leukemia
MDA-MB-435 = test system: MDA-MB-435
UACC-62 melanoma = test system: UACC-62 melanoma
MDA-MB-231 breast = test system: MDA-MB-231 breast
CCRF-CEM leukemia = test system: CCRF-CEM leukemia
HT29 colon = test system: HT29 colon
SK-MEL-28 melanoma = test system: SK-MEL-28 melanoma
MALME-3M melanoma = test system: MALME-3M melanoma
IGROV1 ovarian = test system: IGROV1 ovarian
UACC-257 melanoma = test system: UACC-257 melanoma
LOX IMVI melanoma = test system: LOX IMVI melanoma
COLO 205 colon = test system: COLO 205 colon
NCI-H226 lung = test system: NCI-H226 lung
SNB-19 CNS = test system: SNB-19 CNS
SR leukemia = test system: SR leukemia
MOLT-4 leukemia = test system: MOLT-4 leukemia
SF-295 CNS = test system: SF-295 CNS
A498 renal = test system: A498 renal
TK-10 renal = test system: TK-10 renal
HOP-92 NSCLC = test system: HOP-92 NSCLC
HOP-62 NSCLC = test system: HOP-62 NSCLC
SF-539 CNS = test system: SF-539 CNS
ACHN renal = test system: ACHN renal
UO-31 renal = test system: UO-31 renal
CAKI-1 renal = test system: CAKI-1 renal
A549 NSCLC = test system: A549 NSCLC
OVCAR-4 ovarian = test system: OVCAR-4 ovarian
NCI/ADR-RES ovarian = test system: NCI/ADR-RES ovarian
OVCAR-8 ovarian = test system: OVCAR-8 ovarian
OVCAR-3 ovarian = test system: OVCAR-3 ovarian
DU-145 prostate = test system: DU-145 prostate
U251 CNS = test system: U251 CNS
BT-549 breast = test system: BT-549 breast
OVCAR-5 ovarian = test system: OVCAR-5 ovarian
786-0 renal = test system: 786-0 renal
KM12 colon = test system: KM12 colon
HCT-15 colon = test system: HCT-15 colon
PC-3 prostate = test system: PC-3 prostate

`CN1C(=O)[C@@H](NC(=O)[C@H](CCC(F)(F)F)[C@H](CCC(F)(F)F)C(N)=O)N=C(c2ccccc2)c2ccccc21` was tested, and the GI50 (M14 melanoma) was 50.9 µM, the TGI (M14 melanoma) was greater than 100 µM and the GI50 (SK-OV-3 ovarian) was greater than 100 µM. It also gave a TGI (SK-OV-3 ovarian) greater than 100 µM, a GI50 (RXF 393 renal) of 24.6 µM and a TGI (RXF 393 renal) greater than 100 µM. For the same compound, the GI50 (SW-620 colon) was greater than 100 µM, the TGI (SW-620 colon) was greater than 100 µM and the GI50 (RPMI-8226 leukemia) was 58.7 µM. The TGI (RPMI-8226 leukemia) was greater than 100 µM, the GI50 (HS 578T breast) was greater than 100 µM and the TGI (HS 578T breast) was greater than 100 µM. The GI50 (SN12C renal) was greater than 100 µM, the TGI (SN12C renal) was greater than 100 µM and the GI50 (NCI-H522 lung) was 85.2 µM. It also gave a TGI (NCI-H522 lung) greater than 100 µM, a GI50 (NCI-H23 lung) greater than 100 µM and a TGI (NCI-H23 lung) greater than 100 µM. For the same compound, the GI50 (SF-268 CNS) was greater than 100 µM, the TGI (SF-268 CNS) was greater than 100 µM and the GI50 (SK-MEL-5 melanoma) was 36.1 µM. For the same compound, the TGI (SK-MEL-5 melanoma) was greater than 100 µM, the GI50 (SNB-75 CNS) was 32.6 µM and the TGI (SNB-75 CNS) was greater than 100 µM. It also gave a GI50 (T-47D breast) of 46.2 µM, a TGI (T-47D breast) greater than 100 µM and a GI50 (K-562 leukemia) greater than 100 µM. For the same compound, the TGI (K-562 leukemia) was greater than 100 µM, the GI50 (NCI-H460 lung) was 83.4 µM and the TGI (NCI-H460 lung) was greater than 100 µM. It also gave a GI50 (EKVX NSCLC) of 68 µM, a TGI (EKVX NSCLC) greater than 100 µM and a GI50 (SK-MEL-2 melanoma) greater than 100 µM. It also gave a TGI (SK-MEL-2 melanoma) greater than 100 µM, a GI50 (HCC-2998 colon) greater than 100 µM and a TGI (HCC-2998 colon) greater than 100 µM. It also gave a GI50 (MCF7 breast) of 33.4 µM, a TGI (MCF7 breast) greater than 100 µM and a GI50 (HCT-116 colon) of 56.7 µM. For the same compound, the TGI (HCT-116 colon) was greater than 100 µM, the GI50 (HL-60(TB) leukemia) was 62.6 µM and the TGI (HL-60(TB) leukemia) was greater than 100 µM. For the same compound, the GI50 (MDA-MB-435) was 85.6 µM, the TGI (MDA-MB-435) was greater than 100 µM and the GI50 (UACC-62 melanoma) was 35.7 µM. It also gave a TGI (UACC-62 melanoma) greater than 100 µM, a GI50 (MDA-MB-231 breast) of 43.7 µM and a TGI (MDA-MB-231 breast) greater than 100 µM. For the same compound, the GI50 (CCRF-CEM leukemia) was 55 µM, the TGI (CCRF-CEM leukemia) was greater than 100 µM and the GI50 (HT29 colon) was greater than 100 µM. It also gave a TGI (HT29 colon) greater than 100 µM, a GI50 (SK-MEL-28 melanoma) of 59.7 µM and a TGI (SK-MEL-28 melanoma) greater than 100 µM. The GI50 (MALME-3M melanoma) was greater than 100 µM, the TGI (MALME-3M melanoma) was greater than 100 µM and the GI50 (IGROV1 ovarian) was greater than 100 µM. For the same compound, the TGI (IGROV1 ovarian) was greater than 100 µM, the GI50 (UACC-257 melanoma) was 67.7 µM and the TGI (UACC-257 melanoma) was greater than 100 µM. For the same compound, the GI50 (LOX IMVI melanoma) was greater than 100 µM, the TGI (LOX IMVI melanoma) was greater than 100 µM and the GI50 (COLO 205 colon) was 87.5 µM. It also gave a TGI (COLO 205 colon) greater than 100 µM, a GI50 (NCI-H226 lung) greater than 100 µM and a TGI (NCI-H226 lung) greater than 100 µM. It also gave a GI50 (SNB-19 CNS) greater than 100 µM, a TGI (SNB-19 CNS) greater than 100 µM and a GI50 (SR leukemia) of 28.4 µM. For the same compound, the TGI (SR leukemia) was greater than 100 µM, the GI50 (MOLT-4 leukemia) was 27.3 µM and the TGI (MOLT-4 leukemia) was greater than 100 µM. The GI50 (SF-295 CNS) was 58.4 µM, the TGI (SF-295 CNS) was greater than 100 µM and the GI50 (A498 renal) was 47.7 µM. It also gave a TGI (A498 renal) greater than 100 µM, a GI50 (TK-10 renal) greater than 100 µM and a TGI (TK-10 renal) greater than 100 µM. For the same compound, the GI50 (HOP-92 NSCLC) was 59.1 µM, the TGI (HOP-92 NSCLC) was greater than 100 µM and the GI50 (HOP-62 NSCLC) was greater than 100 µM. The TGI (HOP-62 NSCLC) was greater than 100 µM, the GI50 (SF-539 CNS) was 50.3 µM and the TGI (SF-539 CNS) was greater than 100 µM. The GI50 (ACHN renal) was 45 µM, the TGI (ACHN renal) was greater than 100 µM and the GI50 (UO-31 renal) was 49 µM. For the same compound, the TGI (UO-31 renal) was greater than 100 µM, the GI50 (CAKI-1 renal) was greater than 100 µM and the TGI (CAKI-1 renal) was greater than 100 µM. It also gave a GI50 (A549 NSCLC) of 66.7 µM, a TGI (A549 NSCLC) greater than 100 µM and a GI50 (OVCAR-4 ovarian) of 86.8 µM. It also gave a TGI (OVCAR-4 ovarian) greater than 100 µM, a GI50 (NCI/ADR-RES ovarian) greater than 100 µM and a TGI (NCI/ADR-RES ovarian) greater than 100 µM. It also gave a GI50 (OVCAR-8 ovarian) greater than 100 µM, a TGI (OVCAR-8 ovarian) greater than 100 µM and a GI50 (OVCAR-3 ovarian) greater than 100 µM. For the same compound, the TGI (OVCAR-3 ovarian) was greater than 100 µM, the GI50 (DU-145 prostate) was greater than 100 µM and the TGI (DU-145 prostate) was greater than 100 µM. It also gave a GI50 (U251 CNS) greater than 100 µM, a TGI (U251 CNS) greater than 100 µM and a GI50 (BT-549 breast) of 88.8 µM. The TGI (BT-549 breast) was greater than 100 µM, the GI50 (OVCAR-5 ovarian) was greater than 100 µM and the TGI (OVCAR-5 ovarian) was greater than 100 µM. For the same compound, the GI50 (786-0 renal) was greater than 100 µM, the TGI (786-0 renal) was greater than 100 µM and the GI50 (KM12 colon) was greater than 100 µM. For the same compound, the TGI (KM12 colon) was greater than 100 µM, the GI50 (HCT-15 colon) was 89.5 µM and the TGI (HCT-15 colon) was greater than 100 µM. It also gave a GI50 (PC-3 prostate) of 55.7 µM and a TGI (PC-3 prostate) greater than 100 µM.
